Structures can show the parent of a compound that is named as a salt. Where two headings read alike, the source gives them in different places.
Assays:
human NTCP [1] = molecular target: T1, human NTCP (Homo sapiens, UniProt Q14973); test: Screening fluorescent competitive Myrcludex B-FITC binding assay (96-well, 10 µM drug)
T1 sequence (Q14973 1-349): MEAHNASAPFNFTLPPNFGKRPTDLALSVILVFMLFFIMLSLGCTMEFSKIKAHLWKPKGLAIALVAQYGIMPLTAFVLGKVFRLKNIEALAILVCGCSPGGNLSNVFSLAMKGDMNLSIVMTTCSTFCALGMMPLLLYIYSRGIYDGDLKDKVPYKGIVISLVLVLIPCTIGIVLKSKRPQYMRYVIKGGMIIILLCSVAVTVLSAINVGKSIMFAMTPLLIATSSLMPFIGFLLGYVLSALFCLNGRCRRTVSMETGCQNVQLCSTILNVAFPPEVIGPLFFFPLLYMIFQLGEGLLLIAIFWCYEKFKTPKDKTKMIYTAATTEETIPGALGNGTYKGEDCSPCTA

human NTCP [2] = molecular target: T1, human NTCP; test: Screening taurocholate uptake assay (96-well, [14C]taurocholate, 10 µM drug)
[3] = screen, 10 µM drug, Myrcludex B-FITC binding
[4] = combined ranking from functional and binding screening assays
[5] = screen, 10 µM drug, taurocholate uptake
[6] = Prestwick library screen, Myrcludex B-FITC binding, 10 µM drug
[7] = Prestwick library screen, taurocholate uptake, 10 µM drug
[8] = ranking score beside the functional and binding assay B-scores of the screen
[9] = Prestwick library screen, 10 µM drug, B-score of Myrcludex B-FITC binding
[10] = Prestwick library screen, 10 µM drug, B-score of taurocholate uptake
[11] = combined ranking from functional and binding assay B-scores

Row | Molecule | B-score binding assay (human NTCP [1]; [3]) | Ranking score (human NTCP [2]; [4]) | B-score functional assay (human NTCP [2]; [5]) | B-score binding assay (human NTCP [1]; [6]) | B-score functional assay (human NTCP [2]; [7]) | Ranking score (human NTCP [2]; [8]) | other results
1 | C[C@]12CCC(=O)C=C1CC[C@@H]1[C@@H]2C(=O)C[C@]2(C)C(=O)CC[C@@H]12 [Adrenosterone] | -0.699 | 291.781 | -0.902 | – | – | – | –
2 | C[C@@]12N[C@@H](Cc3ccccc31)c1ccccc12.O=C(O)/C=C\C(=O)O [(-)-MK 801 hydrogen maleate] | – | – | – | 0.115 | -0.004 | 690.814 | –
3 | COc1ccc(C(=O)c2ccccc2)c(O)c1 [Oxybenzone] | – | – | – | -0.416 | 2.742 | 706.929 | –
4 | CC[N+](C)(C)Cc1ccccc1Br [Bretylium tosylate] | 1.504 | 436.134 | -1.625 | – | – | – | –
5 | COc1cccc2c1C(=O)c1c(O)c3c(c(O)c1C2=O)C[C@@](O)(C(C)=O)C[C@@H]3O[C@H]1C[C@H](N)[C@H](O)[C@H](C)O1 [Daunorubicin hydrochloride] | – | – | – | 6.093 | -0.357 | 740.439 | –
6 | COCCc1ccc(OCC(O)CNC(C)C)cc1.COCCc1ccc(OCC(O)CNC(C)C)cc1.O=C(O)C(O)C(O)C(=O)O (racemic) [Metoprolol-(+,-) (+)-tartrate salt] | -0.835 | 295.567 | -0.726 | – | – | – | –
7 | O=C1O[C@H]([C@@H](O)CO)C(O)=C1O [Ascorbic acid] | 0.271 | 365.334 | -1.672 | – | – | – | –
8 | CCOC(=O)C1=C(C)NC(C)=C(C(=O)OCC)C1c1ccccc1/C=C/C(=O)OC(C)(C)C [Lacidipine] | – | – | – | – | – | – | B-score binding assay (human NTCP [1]; [9]): 1.528; B-score functional assay (human NTCP [2]; [10]): 0.194; Ranking score (human NTCP [2]; [11]): 957.497
9 | O.O=P(O)(O)C(O)(Cc1cccnc1)P(=O)(O)O [Risedronic acid monohydrate] | – | – | – | – | – | – | B-score binding assay (human NTCP [1]; [9]): 0.727; B-score functional assay (human NTCP [2]; [10]): 1.315; Ranking score (human NTCP [2]; [11]): 1045.06
10 | C=C(C)[C@@H]1[C@H]2OC(=O)[C@@H]1[C@]1(O)C[C@H]3O[C@]34C(=O)O[C@H]2[C@]14C [Picrotoxinin] | – | – | – | 0.17 | 0.075 | 754.999 | –
11 | COc1cc(NC(C)CCCN)c2ncccc2c1 (stereo not drawn) [Primaquine diphosphate] | – | – | – | – | – | – | B-score binding assay (human NTCP [1]; [9]): 0.361; B-score functional assay (human NTCP [2]; [10]): 4.393; Ranking score (human NTCP [2]; [11]): 1046.51
12 | O=C1CN(/N=C/c2ccc(-c3ccc([N+](=O)[O-])cc3)o2)C(=O)[N-]1.[Na+] [Dantrolene sodium salt] | -1.319 | 342.783 | -0.011 | – | – | – | –
13 | CO[C@@H]1[C@@H](O[C@@H]2O[C@H](C)[C@@H](O[C@H]3C[C@@](C)(O)[C@@H](OC(=O)CC(C)C)[C@H](C)O3)[C@H](N(C)C)[C@H]2O)[C@@H](CC=O)C[C@@H](C)[C@@H](O)/C=C/C=C/C[C@@H](C)OC(=O)C[C@H]1OC(C)=O [Josamycin] | – | – | – | -0.039 | 0.552 | 744.048 | –
14 | CC(=O)[C@H]1CC[C@H]2[C@@H]3C[C@H](C)C4=CC(=O)CC[C@]4(C)[C@H]3[C@@H](O)C[C@]12C [Medrysone] | -0.142 | 406.005 | -0.706 | – | – | – | –
15 | Cc1onc(-c2ccccc2)c1-c1ccc(S(N)(=O)=O)cc1 [Valdecoxib] | – | – | – | 0.051 | -0.028 | 650.385 | –
16 | CCCNC(=O)NS(=O)(=O)c1ccc(Cl)cc1 [Chlorpropamide] | – | – | – | -0.165 | 1.589 | 766.984 | –
17 | O=C(CCNNC(=O)c1ccncc1)NCc1ccccc1 [Nialamide] | – | – | – | – | – | – | B-score binding assay (human NTCP [1]; [9]): 0.697; B-score functional assay (human NTCP [2]; [10]): 0.331; Ranking score (human NTCP [2]; [11]): 907.486
18 | CCCC1C(=O)N2C(N(C)C)=Nc3ccc(C)cc3N2C1=O (stereo not drawn) [Azapropazone] | – | – | – | – | – | – | B-score binding assay (human NTCP [1]): -1.852; B-score functional assay (human NTCP [2]): -0.788; Ranking score (human NTCP [2]): 190.672

Row | Molecule | B-score binding assay (human NTCP [1]; [3]) | Ranking score (human NTCP [2]; [4]) | B-score functional assay (human NTCP [2]; [5]) | B-score binding assay (human NTCP [1]; [6]) | B-score functional assay (human NTCP [2]; [7]) | Ranking score (human NTCP [2]; [8]) | other results
19 | CC(=O)O[C@]1(C(C)=O)CC[C@H]2[C@@H]3C=C(C)C4=CC(=O)CC[C@]4(C)[C@H]3CC[C@@]21C [Megestrol acetate] | – | – | – | – | – | – | B-score binding assay (human NTCP [1]; [9]): 0.319; B-score functional assay (human NTCP [2]; [10]): 0.476; Ranking score (human NTCP [2]; [11]): 869.581
20 | NCCCCCC(=O)O [Aminocaproic acid] | – | – | – | – | – | – | B-score binding assay (human NTCP [1]; [9]): 1.053; B-score functional assay (human NTCP [2]; [10]): 1.656; Ranking score (human NTCP [2]; [11]): 1108.16
21 | c1ccc2c(c1)CCCC2C1=NCCN1 (stereo not drawn) [Tetrahydrozoline hydrochloride] | – | – | – | – | – | – | B-score binding assay (human NTCP [1]; [9]): 1.943; B-score functional assay (human NTCP [2]; [10]): 0.112; Ranking score (human NTCP [2]; [11]): 952.65
22 | CC(=O)OC[C@H]1O[C@@H]([S-])[C@H](OC(C)=O)[C@@H](OC(C)=O)[C@@H]1OC(C)=O.CCP(CC)CC.[Au+] [Auranofin] | – | – | – | -0.068 | 0.729 | 748.559 | –
23 | CC(=O)c1ccc2c(c1)N(CCCN(C)C)c1ccccc1S2.O=C(O)/C=C\C(=O)O [Acetopromazine maleate salt] | -2.054 | 331.723 | 0.92 | – | – | – | –
24 | O=C(O)COCCN1CCN(C(c2ccccc2)c2ccc(Cl)cc2)CC1 (stereo not drawn) [Cetirizine dihydrochloride] | – | – | – | 0.001 | 0.907 | 820.204 | –
25 | Fc1ccc([C@@H]2CCNC[C@H]2COc2ccc3c(c2)OCO3)cc1 [Paroxetine Hydrochloride] | – | – | – | – | – | – | B-score binding assay (human NTCP [1]; [9]): 1.07; B-score functional assay (human NTCP [2]; [10]): 0.185; Ranking score (human NTCP [2]; [11]): 918.273
26 | COC(=O)C1=C(C#N)NC(C)=C(C(=O)OC(C)C)C1c1cccc([N+](=O)[O-])c1 (stereo not drawn) [Nilvadipine] | 2.397 | 384.686 | -2.135 | – | – | – | –
27 | C#C[C@]1(O)CC[C@H]2[C@@H]3CCC4=CC(=O)CC[C@]4(C)[C@H]3CC[C@@]21C [Ethisterone] | – | – | – | 2.018 | -0.564 | 653.06 | –
28 | O=C1Cc2cc(CCN3CCN(c4nsc5ccccc45)CC3)c(Cl)cc2N1 [Ziprasidone Hydrochloride] | -0.675 | 382.094 | -0.279 | – | – | – | –
29 | COc1cccc2c1C(=O)c1c(O)c3c(c(O)c1C2=O)C[C@@](O)(C(=O)CO)C[C@@H]3O[C@H]1C[C@H](N)[C@H](O)[C@H](C)O1 [Doxorubicin hydrochloride] | – | – | – | – | – | – | B-score binding assay (human NTCP [1]): -0.177; B-score functional assay (human NTCP [2]): 0.02; Ranking score (human NTCP [2]): 577.781
30 | CC[C@H]1OC(=O)[C@H](C)[C@@H](O[C@H]2C[C@@](C)(OC)[C@@H](O)[C@H](C)O2)[C@H](C)[C@@H](O[C@@H]2O[C@H](C)C[C@H](N(C)C)[C@H]2O)[C@](C)(O)C[C@@H](C)[C@@H]2N[C@@H](COCCOC)O[C@H]([C@H]2C)[C@]1(C)O [Dirithromycin] | – | – | – | – | – | – | B-score binding assay (human NTCP [1]; [9]): 0.123; B-score functional assay (human NTCP [2]; [10]): 1.532; Ranking score (human NTCP [2]; [11]): 934.441
31 | Deoxycorticosterone | -0.204 | 460.68 | -0.349 | – | – | – | –
32 | NC(=O)N1c2ccccc2CC(=O)c2ccccc21 [Oxcarbazepine] | – | – | – | 0.508 | 0.032 | 789.959 | –
33 | CNC(C)(C)Cc1ccccc1.CNC(C)(C)Cc1ccccc1.O=S(=O)(O)O [Mephentermine hemisulfate] | – | – | – | 0.758 | -0.093 | 728.877 | –
34 | CC(=O)Nc1c(I)c(C(=O)N[C@H]2C(O)O[C@H](CO)[C@@H](O)[C@@H]2O)c(I)c(N(C)C(C)=O)c1I (stereo partly drawn) [Metrizamide] | – | – | – | 0.138 | 0.395 | 816.081 | –
35 | Nc1ccc(C(=O)O)c(O)c1 [4-aminosalicylic acid] | -0.683 | 360.074 | -0.405 | – | – | – | –

Source: publication PMC5681660, “Reduced hepatitis B and D viral entry using clinically applied drugs as novel inhibitors of the bile acid transporter NTCP” (Scientific Reports, 2017)
